Test systems include BT-549 breast; MDA-MB-231 breast; MDA-MB-435.
Common to all, as to assay: growth of human tumour cells (NCI), 48 h

Each structure is given as a SMILES string. “And” between values parts separate entries of the source, which are not always exact repeats. Equal values may be shown once.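 All cell lines were grown in 96-well plates and treated with compound for 48 hours. The concentration for 50% growth inhibition is given as GI50. The concentration for full growth arrest is given as TGI.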 Where only a bound is given, the exact number is not on record here.

With `C=C1C(=O)O[C@H]2[C@H]1CC/C(COC(=O)c1ccc(Br)cc1)=C\CC[C@@]1(C)O[C@@H]21`, the results for the GI50 in the assay with BT-549 breast, in the assay with MDA-MB-231 breast and in the assay with MDA-MB-435 were 1.3 µM, 1.73 µM and 1.79 µM, respectively. Further, the TGI was 3.01 µM in the assay on BT-549 breast, 3.51 µM with MDA-MB-231 breast and 3.5 µM in the assay with MDA-MB-435.
In the case of `COc1cc(C2CC(c3cc(Cl)c(C)cc3O)=NN2c2ccc(S(N)(=O)=O)cc2)cc(OC)c1OC` (centres undefined), the GI50 in the assay with BT-549 breast was 2.6 µM; with MDA-MB-231 breast, 2.09 µM; with MDA-MB-435 it was 2.57 µM. Besides, the TGI with BT-549 breast is 7.01 µM; with MDA-MB-231 breast it was 5.01 µM; with MDA-MB-435, 8.47 µM.
Regarding `COc1ccc(C(=O)C(CN(C)C)c2ccccc2)cc1` (centres undefined), the figures for the GI50 with BT-549 breast, in the assay on MDA-MB-231 breast and in the assay with MDA-MB-435 were 1.76 µM, 5.41 µM and 2.83 µM, respectively. Further, the TGI in the assay with BT-549 breast turned out to be 4.56 µM; in the assay on MDA-MB-231 breast, 17.4 µM; in the assay with MDA-MB-435, 11.4 µM.
Consider `CCN(CC)CCn1nc2c3c(cccc3c1=O)-c1ccccc1-2`, for which the figures for the GI50 in the assay with BT-549 breast, with MDA-MB-231 breast and in the assay on MDA-MB-435 were 6.16 µM, 4.92 µM and 2.96 µM, respectively. In addition, the TGI in the assay with BT-549 breast was 15.1 µM; in the assay with MDA-MB-231 breast, 19.4 µM; with MDA-MB-435, 10.5 µM.
On to `Clc1ccc2c(NCCNc3nc(Cl)nc4ccccc34)ccnc2c1`, for which the GI50 in the assay on BT-549 breast is 1.81 µM; in the assay on MDA-MB-231 breast, 0.36 µM; with MDA-MB-435, 1.47 µM. Moreover, the TGI was 3.72 µM in the assay with BT-549 breast, 1.21 µM in the assay with MDA-MB-231 breast and 2.95 µM in the assay with MDA-MB-435.
With `COC(=O)C1=C(C)NC(C)=C(C(=O)OC)C1c1ccccc1[N+](=O)[O-]`, the GI50 in the assay on BT-549 breast is > 100 µM; in the assay on MDA-MB-231 breast, 70.7 µM; in the assay on MDA-MB-435, > 100 µM. Further, the TGI with BT-549 breast, with MDA-MB-231 breast and in the assay on MDA-MB-435 was > 100 µM in each case.
For `O=C(c1nc2ccccc2[nH]1)C1C(c2cccc([N+](=O)[O-])c2)C2CC3CCCCC3N2[C@@]12C(=O)Nc1cc(Cl)ccc12` (some centres undefined), the GI50 is 1.77 µM in the assay with BT-549 breast, 1.49 µM in the assay with MDA-MB-231 breast and 1.65 µM in the assay on MDA-MB-435. In addition, the TGI in the assay on BT-549 breast stood at 4.36 µM; with MDA-MB-231 breast, 3.17 µM; in the assay on MDA-MB-435, 3.19 µM.
`CCOC(=O)CCC(NC(=O)c1ccc(Nc2nc3cc(N)cc(N)c3nc2-c2ccccc2)cc1)C(=O)OCC` (centres undefined): the GI50 was 40.1 µM with BT-549 breast, 16.5 µM in the assay with MDA-MB-231 breast and 29.9 µM in the assay with MDA-MB-435. In addition, the TGI in the assay on BT-549 breast is > 100 µM; in the assay on MDA-MB-231 breast, > 53.2 µM; in the assay on MDA-MB-435, > 60.4 µM.
Regarding `Nc1ccc(Sc2ccc3c4c2cccc4c(=O)n2c4ccccc4nc32)cc1`, the GI50 with BT-549 breast was 6.06 µM; in the assay with MDA-MB-231 breast, 5.31 µM; in the assay on MDA-MB-435 it was 12.6 µM. In addition, the TGI came to 56.3 µM in the assay with BT-549 breast, 30 µM in the assay with MDA-MB-231 breast and 82.2 µM in the assay on MDA-MB-435.
As to `O=C(Nc1ccc(Oc2cccc(Cl)c2)c(Cl)c1)c1cccnc1`, the results for the GI50 with BT-549 breast, in the assay on MDA-MB-231 breast and with MDA-MB-435 were 5.42 µM, 6.25 µM and 0.155 µM, respectively. Moreover, the TGI is 44.3 µM in the assay on BT-549 breast, 46 µM with MDA-MB-231 breast and 0.723 µM in the assay with MDA-MB-435.
On to `COC(=O)C12CC(NC(=O)c3csc([C@@H](C[C@H](C(C)C)N(C)C(=O)[C@@H](NC(=O)[C@H]4CCCCN4C)C(C)C)OC(C)=O)n3)(C1)C2`, for which the GI50 in the assay with BT-549 breast was 0.00439 µM and 0.00341 µM; with MDA-MB-231 breast, 0.00434 µM and 0.00333 µM; in the assay on MDA-MB-435 it was 0.000165 µM. The TGI in the assay on BT-549 breast was 0.0939 µM and 0.33 µM; with MDA-MB-435, 0.00169 µM.
For the compound `Fc1ccc(-c2ncn(C3CCNCC3)c2-c2ccnc(Oc3ccc(Oc4ccccc4)cc3)n2)cc1`, the values for the GI50 in the assay on BT-549 breast, with MDA-MB-231 breast and with MDA-MB-435 were 3.75 µM, 3.71 µM and 3.92 µM, respectively. Further, the figures for the TGI in the assay with BT-549 breast, in the assay on MDA-MB-231 breast and in the assay with MDA-MB-435 were 7.1 µM, 7.17 µM and 8.46 µM, respectively.
As for `CCN1CCN(c2nc(NNC(=O)c3cccc(OC)c3)nc(N3CCN(C(c4ccccc4)c4ccccc4)CC3)n2)CC1`, the GI50 in the assay on BT-549 breast was 2.65 µM; in the assay on MDA-MB-231 breast, 1.87 µM; with MDA-MB-435, 1.7 µM. For the same compound, the TGI amounted to 9.81 µM in the assay on BT-549 breast, 3.58 µM with MDA-MB-231 breast and 3.19 µM with MDA-MB-435.
In the case of `CCCCOc1nc2ccccc2cc1C1CNC(=O)c2ccccc2N1` (centres undefined), the GI50 in the assay with BT-549 breast is 4.17 µM; in the assay on MDA-MB-231 breast, 4.78 µM; in the assay with MDA-MB-435, 0.546 µM. Also, the TGI is 23.2 µM in the assay with BT-549 breast, 26 µM in the assay with MDA-MB-231 breast and 1.82 µM in the assay with MDA-MB-435.
For `c1ccc2c(Nc3ccc4c(c3)OCO4)c3ccoc3nc2c1`, in the assay on MDA-MB-435, the GI50 was 3.97 µM and the TGI was found to be 14.4 µM.
Turning to `Cc1cccc(Cc2cnc(NC(=O)/C=C/c3ccco3)s2)c1`, in the assay on BT-549 breast, the GI50 is 0.174 µM and the TGI was > 100 µM. For the same compound, in the assay on MDA-MB-231 breast, the GI50 was 0.0771 µM and the TGI is > 73.1 µM.
